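Five concentrations, 48 hours, 96-well plates. The concentration for 50% growth inhibition is given as GI50. TGI is the concentration that stops growth completely.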
How the values were obtained:
Assay in all cases: NCI-60 cell line screen, 48 h
[1] = test system: NCI-H226 lung
[2] = test system: K-562 leukemia
[3] = test system: IGROV1 ovarian
[4] = test system: UACC-257 melanoma
[5] = test system: SK-MEL-5 melanoma
[6] = test system: EKVX NSCLC
[7] = test system: DU-145 prostate
[8] = test system: NCI/ADR-RES ovarian
[9] = test system: NCI-H23 lung
[10] = test system: NCI-H522 lung

Cc1nnc(S(=O)(=O)c2ccc(N=Nc3c(N)nc(N)nc3N)cc2)s1
TGI [1]: > 100 µM | TGI [2]: > 100 µM | TGI [3]: > 100 µM | TGI [4]: > 100 µM | TGI [5]: > 100 µM | TGI [6]: > 100 µM | TGI [7]: > 100 µM | TGI [8]: > 100 µM | TGI [9]: > 100 µM | TGI [10]: > 100 µM

Cc1ccc(C(SCC(N)C(=O)O)(c2ccccc2)c2ccc(C)cc2)cc1 (stereo not given)
GI50 [1]: 3.02 µM | TGI [1]: 25.8 µM | GI50 [2]: 0.266 µM | TGI [2]: > 35.2 µM | GI50 [3]: 0.526 µM | TGI [3]: 26.1 µM | GI50 [4]: 2.13 µM | TGI [4]: > 56.8 µM | GI50 [5]: 0.0465 µM | TGI [5]: 13.8 µM | GI50 [6]: 0.357 µM | TGI [6]: > 46.8 µM | GI50 [7]: 0.287 µM | TGI [7]: 2.66 µM | GI50 [8]: 1.14 µM | TGI [8]: 11.6 µM | GI50 [9]: 0.423 µM | TGI [9]: 23.7 µM | GI50 [10]: 0.132 µM | TGI [10]: 2.58 µM

COc1ccc2c(c1)C(C)Cc1c(Cl)ncnc1N2C (stereo not given)
GI50 [1]: 0.213 µM | TGI [1]: 0.481 µM | GI50 [2]: 2.08 µM | TGI [2]: > 100 µM | GI50 [3]: 1.96 µM | TGI [3]: > 69.6 µM | GI50 [4]: 0.471 µM | TGI [4]: 23.3 µM | GI50 [5]: 0.188 µM | TGI [5]: 0.353 µM | GI50 [6]: 0.44 µM | TGI [6]: 29.9 µM | GI50 [7]: 3.41 µM | TGI [7]: > 74.1 µM | GI50 [8]: 0.388 µM | TGI [8]: 11.2 µM | GI50 [9]: 0.449 µM | TGI [9]: 11.5 µM | GI50 [10]: 1.41 µM | TGI [10]: 4.02 µM
